In paper PMC6685951, “Migration of Bacteriocins Across Gastrointestinal Epithelial and Vascular Endothelial Cells, as Determined Using In Vitro Simulations” (Scientific Reports, 2019):
Where a SMILES comes first, the peptide text is derived from it. Bridges are numbered along the chain shown (N, C = ends).

Assays:
[1] = Plasma stability assay (loss of antimicrobial activity); assay type: in vitro ADME, human; details: 37 °C, 3 days, agar well diffusion vs L. monocytogenes EGDe, zone diameter (ImageJ)
Method: Human blood was collected in tubes with potassium and EDTA as anticoagulant, centrifuged at 500 × g (10 min, 25 °C) and the plasma collected. Different plasma concentrations (0%, 40% and 80%, v/v) were prepared by diluting with sterile ultrapure water. Nisin A, plantaricin 423 and bacST4SA, each suspended in sterile ultrapure water, were added to the plasma to final concentrations of 25 µM, 50 µM and 100 µM, sterile ultrapure water was used as control. Incubation was at 37 °C for 3 days and bacteriocin activity was tested using the agar well diffusion assay. Listeria monocytogenes EGDe was used as target organism. Digital images of the plates were taken after incubation and activity quantified by measuring the diameter of the zones using ImageJ software (version 1.5; https://imagej.nih.gov/ij/).

HUVEC = assay: Neutral red viability assay, HUVEC; assay type: cell-based, human; details: 24 h, 37 °C
Method: (§1) For viability and cytotoxicity studies, cells were seeded in 96-well flat-bottom culture plates (1 × 10^4 cells/well). To determine migration of nisin A, plantaricin 423 and bacST4SA across the gastrointestinal epithelial and vascular endothelial barriers, HUVEC and Caco-2 cells were grown on an 8 µm pore size tissue culture insert, as shown in Fig. 1. All cell culture experiments were done in triplicate and have been repeated more than three times.
Cells were treated with different concentrations of the peptides as described for the XTT assay. Sterile ultrapure water was used as control. After incubation at 37 °C for 24 h, neutral red solution was added to the cells (10% of the culture volume). After 4 h of incubation at 37 °C, the medium was removed by aspiration and the cells were rinsed with neutral red fixative. The fixative was removed, the dye solubilized by adding […] and the cells were gently stirred for 10 min on a gyratory shaker. Absorbance readings were recorded at 540 nm and 690 nm, respectively, using a microtiter plate reader. The percentage viability was calculated as the absorbance of treated cells divided by the absorbance of untreated cells (AT/AC × 100).

Caco-2 cells = assay: LDH release assay, Caco-2; assay type: cell-based, human; details: 24 h
Method: as §1
HUVEC and Caco-2 cells were exposed to three different concentrations (25 µM, 50 µM and 100 µM) nisin A, plantaricin 423 and bacST4SA and the presence of extracellular LDH determined using the LDH release assay kit. Sterile ultrapure water was used as negative control (referred to as spontaneous LDH activity) and lysis buffer (10X) was used as positive control (referred to as maximum LDH activity). After incubating the cultures in the presence of the peptides for 24 h at 37 °C, culture supernatants were pipetted into a 96-well plate. Reaction mixture was added to the supernatants and plates were incubated at 25 °C for 30 min. Absorbance was measured at 490 nm and 680 nm, respectively. The percentage cytotoxicity was calculated as follows (1):1 %Cytotoxicity=(Compound−treatedLDHactivity)−(SpontaneousLDHactivity)/MaximumLDHactivity−SpontaneousLDHactivity×100

Caco-2 cell monolayer = assay: Migration across Caco-2 monolayer on transmigration inserts; assay type: in vitro ADME, human; details: 3 h
Method: as §1
HUVECs and Caco-2 cells were seeded onto transmigration inserts (Fig. 1) at a cell density of 1 × 10^5 cells/insert (200 µL). Inserts were carefully placed in a 24-well tissue culture plate containing 700 µL cell growth media. […] The integrity of the monolayers was monitored by ensuring trans-epithelial electrical resistance (TEER) readings remained above 300 Ω throughout the experiment (Millicell-ERS volt-ohm meter, Merck)[51],[52],[62]. […] Transmigration inserts containing no monolayer, was used to determine the total fluorescence. Samples were incubated for 3 h while absorbance was measured at 490 nm every 30 min using a microplate reader. Before each reading, inserts were removed and placed into new microplates containing fresh media. […]
The percentage of peptide that attached to, or entered the cells was quantified by subtracting the sum of migrated peptide (eq. 4) and retained peptide (eq. 5) from the total fluorescence. […]

With `CC(C)C[C@@H]1NC(=O)[C@H](Cc2c[nH]cn2)NC(=O)[C@H](CO)NC(=O)[C@H](C(C)C)NC(=O)[C@H](CO)NC(=O)[C@@H](NC(=O)[C@H](CO)NC(=O)[C@H](Cc2ccccc2)NC(=O)[C@H](C)NC(=O)[C@H](CCC(N)=O)NC(=O)CNC(=O)[C@H](Cc2c[nH]c3ccccc23)NC(=O)[C@H](CC(N)=O)NC(=O)[C@@H](NC(=O)[C@H](CO)NC(=O)[C@@H]2CSSC[C@H](NC(=O)[C@@H](NC(=O)[C@@H](NC(=O)CNC(=O)[C@H](CC(N)=O)NC(=O)CNC(=O)[C@H](Cc3ccc(O)cc3)NC(=O)[C@H](Cc3ccc(O)cc3)NC(=O)[C@@H](N)CCCCN)C(C)C)[C@@H](C)O)C(=O)NCC(=O)N[C@@H](CCCCN)C(=O)N[C@@H](Cc3c[nH]cn3)C(=O)N[C@@H](CO)C(=O)N2)C(C)C)CSSC[C@@H](C(=O)O)NC(=O)[C@H](CCCCN)NC(=O)CNC(=O)[C@H](Cc2c[nH]cn2)NC(=O)CNC(=O)[C@H](Cc2ccccc2)NC(=O)[C@H](CC(N)=O)NC(=O)[C@H](C)NC1=O` [plantaricin 423] (H-KYYGNGVTCGKHSCSVNWGQAFSCSVSHLANFGHGKC-OH; disulfide 9-14, 24-37; N-terminus and C-terminus assumed) the “decrease in antimicrobial activity” value ([1]; 40% (v/v) human EDTA plasma in ultrapure water, 25 µM peptide) was 40%, the “decrease in antimicrobial activity” value ([1]; 40% (v/v) human EDTA plasma in ultrapure water, 50 µM peptide) was 30% and the “decrease in antimicrobial activity” value ([1]; 40% (v/v) human EDTA plasma in ultrapure water, 100 µM peptide) was 17%. The “decrease in antimicrobial activity” value ([1]; 80% (v/v) human EDTA plasma in ultrapure water, 25 µM peptide) was 60%, the “decrease in antimicrobial activity” value ([1]; 80% (v/v) human EDTA plasma in ultrapure water, 50 µM peptide) was 39% and the “decrease in antimicrobial activity” value ([1]; 80% (v/v) human EDTA plasma in ultrapure water, 100 µM peptide) was 29%. The “cell viability (neutral red)” value (HUVEC; 25 µM and 50 µM (up to 50 µM)) was “did not cause significant decreases”, the “cell viability (neutral red)” value (HUVEC; 100 µM) was “slight reduction” and the “cytotoxicity level (LDH release)” value (Caco-2 cells; Caco-2, 100 µM, 37 °C, percentage of maximum LDH release (lysis buffer = 100%)) was 17%. The “toxicity (LDH release)” value (Caco-2 cells; Caco-2, concentrations up to 100 µM) was “minimal toxicity”, the “percentage attached and/or entered peptide” value (Caco-2 cell monolayer; Caco-2, labelled peptide 50 µM, total fluorescence minus migrated and residual peptide) was 11% and the migrated peptide (Caco-2 cell monolayer; Caco-2 monolayer on 8 µm pore insert, apical addition, NHS-fluorescein labelled peptide 50 µM, 37 °C, TEER above 300 Ω, read at 490 nm, % of no-monolayer control, triplicate) was 85%.
